This note sets out measurements from patent US8642631B2, “Methods of treating mammals with eustachian tube dysfunctions” (University of Melbourne, priority 2008, dated 2014).

The subject of this assay is Eustachian tube. Kind of assay: Eustachian tube function test (middle ear pressure equalisation on reflex swallowing) in anaesthetised rats. It counts as in vivo, Sprague Dawley rats. The method, then:
Animal experiments were conducted on female and male adult Sprague Dawley rats weighing 250-450 g. Up to five animals were used in each section of the experiment. In this figure, a small tube is glued into the tympanic bulla of an anaesthetised rat (A). The tube is connected to a syringe pump (B), a pressure transducer (C) and data recorder (D) and to a manometer (E). The syringe pump is used to increase pressure within the middle ear. […] From this it can be seen that intra-bulla pressure was increased from ambient (Amb) to around 130 mm of water. […] The overall pressure drop is a measure of the efficiency of pressure equalisation via the Eustachian tube. Each experiment consisted of a series of active Eustachian tube function tests preceded by a passive run. In the passive run pressure was increased in the bulla by a continuous air flow (30 ml/min) until the Eustachian tube opened spontaneously. While the air continued to flow, the pressure in the middle ear decreased until the Eustachian tube closed. Now the pressure in the middle ear, due to continued air flow, could build up again until the Eustachian tube opened a second time. This enabled the measurement of the passive opening and closing pressures of the Eustachian tube. The active runs consisted of three preceding control runs (C1-C3) followed by three runs assessing the effect of intervention S1-S6. At the start of each active run the pressure in the bulla was raised to 75% of the passive opening pressure of the Eustachian tube. At this point the air flow into the bulla was stopped. […] This caused reflex swallowing, which was accompanied by a momentary opening of the Eustachian tube, and reduced middle ear pressure step by step. In each active run 10 consecutive swallows were recorded. […]

`CNCCc1ccccn1` [betahistine, N-methyl-2-pyridineethanaamine]: the “increase in efficiency of Eustachian tube pressure equalisation” value (anaesthetised rats, betahistine applied within the tympanic bulla and flushed through the Eustachian tube, FIG. 4) is on record as “around 30%”. Besides, the “effect on ET function” value (anaesthetised rats, systemic (intraperitoneal) injection, cumulative doses 1, 5 and 10 μl, total 16 μl, FIG. 5) was “no significant effect”. Moreover, where the note is “healthy anaesthetised rats, betahistine diHCl 5 μl of 8 mg/mL (Vasomotal) applied to the nasopharynx, normalized to control measurement C3, FIG. 3”, the “increase in efficiency of pressure equalisation through the Eustachian tube” value turned out to be 31%.
